Test results as given in the supplement of paper PMC10307832.

Key:
Experiment in all cases: relative viability (nuclei count vs DMSO), 5 days (fraction); higher = more cells survive
Bortezomib + Navitoclax = compound: CC(C)C[C@H](NC(=O)[C@H](Cc1ccccc1)NC(=O)c1cnccn1)B(O)O [Bortezomib] + CC1(C)CCC(c2ccc(Cl)cc2)=C(CN2CCN(c3ccc(C(=O)NS(=O)(=O)c4ccc(N[C@H](CCN5CCOCC5)CSc5ccccc5)c(S(=O)(=O)C(F)(F)F)c4)cc3)CC2)C1 [Navitoclax] (partner 0.5 µM)
How it was run: (§1)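 Medians of duplicate plates are given as relative viability. That measure is the nuclei count in treated wells divided by the count in vehicle wells. Counts were taken on 4× images of lung cancer cell lines in 1536-well plates, 5 days after pin-tool dosing the day after seeding with one drug alone or a fixed anchor-drug dose plus five library-drug doses (not always all listed) in √10 steps.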

Bortezomib + Decitabine = compound: CC(C)C[C@H](NC(=O)[C@H](Cc1ccccc1)NC(=O)c1cnccn1)B(O)O [Bortezomib] + Nc1ncn([C@H]2C[C@H](O)[C@@H](CO)O2)c(=O)n1 [Decitabine] (partner 2 µM)
How it was run: as §1

[1] = compound: CC1=CC(=NN1)NC2=CC(=NC(=N2)/C=C/C3=CC=CC=C3)N4CCN(CC4)C + Cc1nc(Nc2ncc(C(=O)Nc3c(C)cccc3Cl)s2)cc(N2CCN(CCO)CC2)n1 [Dasatinib] (partner 0.075 µM)
How it was run: as §1

Obatoclax + Foretinib = compound: COC1=CC(c2cc3ccccc3[nH]2)=N/C1=C\c1[nH]c(C)cc1C [Obatoclax] + COc1cc2c(Oc3ccc(NC(=O)C4(C(=O)Nc5ccc(F)cc5)CC4)cc3F)ccnc2cc1OCCCN1CCOCC1 [Foretinib] (partner 0.25 µM)
How it was run: as §1

Cell Line | relative viability (Bortezomib + Navitoclax; first compound 0.0002 µM) | relative viability (Bortezomib + Navitoclax; first compound 0.000632 µM) | relative viability (Bortezomib + Navitoclax; first compound 0.002 µM) | relative viability (Bortezomib + Navitoclax; first compound 0.006325 µM) | relative viability (Bortezomib + Navitoclax; first compound 0.02 µM) | relative viability (Bortezomib + Decitabine; first compound 0.0002 µM) | relative viability (Bortezomib + Decitabine; first compound 0.000632 µM) | relative viability (Bortezomib + Decitabine; first compound 0.002 µM) | relative viability (Bortezomib + Decitabine; first compound 0.006325 µM) | relative viability (Bortezomib + Decitabine; first compound 0.02 µM) | relative viability ([1]; first compound 0.08 µM) | relative viability ([1]; first compound 0.253 µM) | relative viability ([1]; first compound 0.8 µM) | relative viability ([1]; first compound 2.53 µM) | relative viability ([1]; first compound 8 µM) | relative viability (Obatoclax + Foretinib; first compound 0.01 µM) | relative viability (Obatoclax + Foretinib; first compound 0.03162 µM) | relative viability (Obatoclax + Foretinib; first compound 0.1 µM) | relative viability (Obatoclax + Foretinib; first compound 0.3162 µM) | relative viability (Obatoclax + Foretinib; first compound 1 µM)
201T | 1.21 | 1.19 | 1.21 | 1.22 | 1.23 | 0.846 | 0.859 | 0.894 | 0.819 | 0.274 | 0.586 | 0.546 | 0.541 | 0.435 | 0.208 | 1.09 | 1.12 | 1.1 | 1.09 | 0.768
LC-2-ad | 0.422 |  | 0.543 | 0.0995 | 0.0978 | 0.73 | 0.81 | 0.931 | 0.516 | 0.225 | 0.611 | 0.367 | 0.257 | 0.182 | 0.134 | 0.997 | 0.876 | 0.869 | 0.897 | 0.525
NCI-H596 | 0.921 | 0.817 | 0.925 | 0.123 | 0.131 | 1.01 | 0.999 | 0.95 | 0.251 | 0.208 | 0.638 | 0.522 | 0.536 | 0.357 | 0.216 | 0.758 | 0.798 | 0.823 | 0.535 | 0.492
NCI-H1437 | 1.08 | 1.09 | 1.1 | 0.118 | 0.123 | 0.585 | 0.585 | 0.595 | 0.214 | 0.223 | 0.377 | 0.455 | 0.404 | 0.273 | 0.0967 | 1.22 | 1.28 | 1.21 | 1.16 | 1.25
NCI-H727 | 0.455 | 0.511 | 0.541 | 0.167 | 0.103 | 0.993 | 1.09 | 0.875 | 0.95 | 0.834 | 0.372 |  | 0.407 | 0.257 | 0.186 | 1.04 | 0.628 | 1.07 | 0.699 | 1.08
PC-3 [JPC-3] | 0.783 | 0.842 | 0.724 | 0.44 | 0.139 | 0.815 | 0.84 | 0.428 | 0.301 | 0.237 | 0.931 | 1.04 | 0.978 | 0.948 | 0.802 | 1 | 1.03 | 1.01 | 1.01 | 0.916
SW 1573 | 0.849 | 1.12 | 0.928 | 0.0531 | 0.0615 | 0.366 | 0.573 | 0.229 | 0.0617 | 0.0363 | 0.545 | 0.578 | 0.517 | 0.0958 | 0.0582 | 0.866 | 0.732 | 0.816 | 0.81 | 0.6
NCI-H2228 | 1 | 1.05 | 0.368 | 0.0925 | 0.0601 |  |  |  |  |  | 0.448 | 0.539 | 0.369 | 0.0563 | 0.0381 | 0.851 | 0.867 | 0.861 | 0.759 | 0.511
